Results reported in patent publication US9604940B2 (Chroma Therapeutics Ltd., priority 2012, dated 2017).

How the values were obtained:
CSF1R (FMS) = biological target: T1, CSF1R (FMS) (Homo sapiens, UniProt P07333); test: CSF1R (FMS) kinase activity, Z'-LYTE biochemical assay (Invitrogen); details: ATP at or close to Km, 60 minute reaction at room temperature, read-out: Inhibitor activity versus CSF-1
T1 construct: purchased Invitrogen (Paisley, UK)
Description: CSF1R (FMS) Kinase Activity
The ability of compounds to inhibit CSF1R (FMS) kinase activity was measured in an assay performed by Invitrogen (Paisley, UK). The Z′-LYTE™ biochemical assay employs a fluorescence-based, coupled-enzyme format and is based on the differential sensitivity of phosphorylated and non-phosphorylated peptides to proteolytic cleavage. The peptide substrate is labelled with two fluorophores—one at each end—that make up a FRET pair. In the primary reaction, the kinase transfers the gamma-phosphate of ATP to a single […] residue in a synthetic FRET-peptide. In the secondary reaction, a site-specific protease recognizes and cleaves non-phosphorylated FRET-peptides. Phosphorylation of FRET-peptides suppresses cleavage by the Development Reagent. Cleavage disrupts FRET between the donor (i.e. coumarin) and acceptor (i.e. fluorescein) fluorophores on the FRET-peptide, whereas uncleaved, phosphorylated FRET-peptides maintain FRET. A […] method, which calculates the ratio (the Emission Ratio) of donor emission to acceptor emission after excitation of the donor fluorophore at 400 nm, is used to quantitate reaction progress.
The final 10 μL Kinase Reaction consists of 0.12-12.3 ng CSF1R (FMS), 2 μM Tyr 01 Peptide and ATP in 50 mM HEPES pH 7.5, 0.01% BRIJ-35, 10 mM MgCl2, 1 mM EGTA. The assay is performed at an ATP concentration at, or close to, the Km. After the 60 minute Kinase Reaction incubation at room temperature, 5 μL of a 1:256 dilution of Development Reagent is added. The assay plate is incubated for a further 60 minutes at room temperature and read on a fluorescence plate reader.
Duplicate data points are generated from a ⅓ log dilution series of a stock solution of test compound in DMSO. Nine dilutions steps are made from a top concentration of 10 mM, and a ‘no compound’ blank is included. Data is collected and analysed using XLfit software from IDBS. The dose response curve is curve fitted to model number 205 (sigmoidal dose-response model). From the curve generated, the concentration giving 50% inhibition is determined and reported.

MCP-1 = test: MCSF-stimulation of human whole blood, MCP-1 levels by sandwich ELISA; format: cell-based; details: inhibitor 2 hours before MCSF 50 ng/ml, 22 hrs, MCP-1 in cell-free supernatants, read-out: Inhibitor activity versus MCP-1
Description: Macrophage Colony-Stimulating Factor (MCSF)-Stimulation of Human Whole Blood
Whole blood was taken by venous puncture using heparinised vacutainers (Becton Dickinson) and diluted in an equal volume of RPMI1640 tissue culture media (Sigma). 100 μl was plated in V-bottomed 96 well tissue culture treated plates. 2 hours after the addition of the inhibitor in 100 μl of RPMI1640 media, the blood was stimulated with MCSF (Peprotech: #300-25-10 uG) at a final concentration of 50 ng/ml and incubated at 37° C. in 5% CO2 for 22 hrs. MCP-1 levels were measured from cell-free supernatants by sandwich ELISA developed from MCP-1/CCL2 Duoset (R&D Systems #DY279). Additional reagents required for ELISA were purchased from Sigma, (BSA: A3059, 10×PBS: D1408, Tween20: P5927) R&D Systems, (colour reagent: #DY999 and stop solution: #DY994) and Costar (96-well EIA plates: #2592). Assays were carried out following the manufacturer's instructions with the following modifications: Cell-free supernatants were diluted 30:70 in reagent diluent before assay. All incubations except capture antibody were carried out with shaking at 550 rpm. 3 washes were carried out between steps, and incubation times were blocking 1.5 hr, sample/standard and detection antibody incubations 2 hr, HRP incubation 30 min, colour development 20 min. • IC50 values were allocated to one of five ranges as follows: • Range A: IC50<100 nM • Range B: 100 nM<IC50<300 nM • Range C: 300 nM<1050<1000 nM • Range D: 1000 nM<IC50<5000 nM • Range E: IC50>5000 nM • NT=not tested

T1 sequence (P07333 20-972): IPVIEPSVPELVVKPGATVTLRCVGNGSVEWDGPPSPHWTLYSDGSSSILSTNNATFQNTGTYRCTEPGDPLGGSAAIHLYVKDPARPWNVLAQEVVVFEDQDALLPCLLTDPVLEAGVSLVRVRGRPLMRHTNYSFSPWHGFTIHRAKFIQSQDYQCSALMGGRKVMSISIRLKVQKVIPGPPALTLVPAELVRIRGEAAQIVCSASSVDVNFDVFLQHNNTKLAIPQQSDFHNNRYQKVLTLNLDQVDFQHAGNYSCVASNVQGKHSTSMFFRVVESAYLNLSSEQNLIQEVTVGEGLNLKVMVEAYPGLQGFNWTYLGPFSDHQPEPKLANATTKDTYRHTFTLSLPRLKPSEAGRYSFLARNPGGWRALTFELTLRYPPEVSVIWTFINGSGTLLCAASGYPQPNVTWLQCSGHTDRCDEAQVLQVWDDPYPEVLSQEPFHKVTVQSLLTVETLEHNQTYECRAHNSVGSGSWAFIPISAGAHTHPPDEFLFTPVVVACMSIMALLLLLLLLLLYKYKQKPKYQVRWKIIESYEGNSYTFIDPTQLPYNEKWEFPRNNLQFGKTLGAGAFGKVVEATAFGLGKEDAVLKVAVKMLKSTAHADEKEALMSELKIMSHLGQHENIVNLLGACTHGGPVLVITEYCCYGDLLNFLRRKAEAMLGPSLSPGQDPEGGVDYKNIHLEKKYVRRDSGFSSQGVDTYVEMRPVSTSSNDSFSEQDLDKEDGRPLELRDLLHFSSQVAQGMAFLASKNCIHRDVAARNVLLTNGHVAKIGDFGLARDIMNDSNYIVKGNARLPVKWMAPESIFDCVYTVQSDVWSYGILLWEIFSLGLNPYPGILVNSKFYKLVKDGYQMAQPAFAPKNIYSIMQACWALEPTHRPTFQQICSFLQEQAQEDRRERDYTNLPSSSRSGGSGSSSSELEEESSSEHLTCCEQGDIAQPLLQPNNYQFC

IC50 (CSF1R (FMS)) | IC50 (MCP-1) | SMILES
100 to 300 nM | 300 to 1000 nM | Nc1ncc(-c2ccc(CNC3CCN[C@@H](C(=O)OC4CCCC4)C3)cc2)nc1NCc1c(F)cccc1F (stereo partly drawn) [Example 14, Cyclopentyl (2R)-4-[(4-{5-amino-6-[(2,6-difluorobenzyl)amino]pyrazin-2-yl}benzyl)amino]piperidine-2-carboxylate di-formate]
100 to 300 nM | 100 to 300 nM | Nc1ncc(-c2ccc(CNC3CCN[C@@H](C(=O)OC4CCCC4)C3)c(Cl)c2)nc1NCc1c(Cl)cccc1Cl (stereo partly drawn) [Example 18, Cyclopentyl (2R)-4-[(4-{5-amino-6-[(2,6-dichlorobenzyl)amino]pyrazin-2-yl}-2-chlorobenzyl)amino]piperidine-2-carboxylate]
< 100 nM | < 100 nM | Cc1cc(-c2cnc(N)c(NCc3c(Cl)cccc3Cl)n2)ccc1CNC1CCN[C@@H](C(=O)OC2CCCC2)C1 (stereo partly drawn) [Example 19, Cyclopentyl (2R)-4-[(4-{5-amino-6-[(2,6-dichlorobenzyl)amino]pyrazin-2-yl}-2-methylbenzyl)amino]piperidine-2-carboxylate]
1000 to 5000 nM | < 100 nM | CCc1cc(-c2cnc(N)c(NCc3c(Cl)cccc3Cl)n2)ccc1CN1CCNC(C(=O)OC2CCCC2)C1 (stereo not drawn) [Example 20, Cyclopentyl 4-(4-{5-amino-6-[(2,6-dichlorobenzyl)amino]pyrazin-2-yl}-2-ethylbenzyl)piperazine-2-carboxylate]
< 100 nM | 300 to 1000 nM | CC(C)(C)OC(=O)[C@H]1CC(NCc2ccc(-c3cnc(N)c(NCc4c(Cl)cccc4Cl)n3)cc2)CCN1 (stereo partly drawn) [Example 21, tert-Butyl (2R)-4-[(4-{5-amino-6-[(2,6-dichlorobenzyl)amino]pyrazin-2-yl}benzyl)amino]piperidine-2-carboxylate]
< 100 nM | 300 to 1000 nM | CC(C)(C)OC(=O)[C@@H]1CC(NCc2ccc(-c3cnc(N)c(NCc4c(Cl)cccc4Cl)n3)cc2)CCN1 (stereo partly drawn) [Example 22, tert-Butyl (2S)-4-[(4-{5-amino-6-[(2,6-dichlorobenzyl)amino]pyrazin-2-yl}benzyl)amino]piperidine-2-carboxylate]
300 to 1000 nM | 300 to 1000 nM | CC(C)(C)OC(=O)C1CN(Cc2ccc(-c3cnc(N)c(NCc4c(Cl)cccc4Cl)n3)cc2)CCN1 (stereo not drawn) [Example 23, tert-Butyl 4-(4-{5-amino-6-[(2,6-dichlorobenzyl)amino]pyrazin-2-yl}benzyl)piperazine-2-carboxylate]
100 to 300 nM | 300 to 1000 nM | CC(C)(C)OC(=O)[C@H]1CC(NCc2ccc(-c3cnc(N)c(NCc4c(Cl)cccc4Cl)n3)cc2Cl)CCN1 (stereo partly drawn) [Example 25, tert-Butyl (2R)-4-[(4-{5-amino-6-[(2,6-dichlorobenzyl)amino]pyrazin-2-yl}-2-chlorobenzyl)amino]piperidine-2-carboxylate]
< 100 nM | 300 to 1000 nM | Cc1cc(-c2cnc(N)c(NCc3c(Cl)cccc3Cl)n2)ccc1CNC1CCN[C@@H](C(=O)OC(C)(C)C)C1 (stereo partly drawn) [Example 26, tert-Butyl (2R)-4-[(4-{5-amino-6-[(2,6-dichlorobenzyl)amino]pyrazin-2-yl}-2-methylbenzyl)amino]piperidine-2-carboxylate]
100 to 300 nM | < 100 nM | CCN(Cc1ccc(-c2cnc(N)c(NCc3c(Cl)cccc3Cl)n2)cc1)C1CCN[C@@H](C(=O)OC2CCCC2)C1 (stereo partly drawn) [Example 27, Cyclopentyl (2R)-4-[(4-{5-amino-6-[(2,6-dichlorobenzyl)amino]pyrazin-2-yl}benzyl)(ethyl)amino]piperidine-2-carboxylate]
100 to 300 nM | < 100 nM | CN(Cc1ccc(-c2cnc(N)c(NCc3c(Cl)cccc3Cl)n2)cc1)C1CCN[C@@H](C(=O)OC2CCCC2)C1 (stereo partly drawn) [Example 28, Cyclopentyl (2R)-4-[(4-{5-amino-6-[(2,6-dichlorobenzyl)amino]pyrazin-2-yl}benzyl)(methyl)amino]piperidine-2-carboxylate]
100 to 300 nM | 100 to 300 nM | CCN(Cc1ccc(-c2cnc(N)c(NCc3c(Cl)cccc3Cl)n2)cc1)C1CCN[C@@H](C(=O)OC(C)(C)C)C1 (stereo partly drawn) [Example 30, tert-Butyl (2R)-4-[(4-{5-amino-6-[(2,6-dichlorobenzyl)amino]pyrazin-2-yl}benzyl)(ethyl)amino]piperidine-2-carboxylate]
100 to 300 nM | < 100 nM | CC(=O)N(Cc1ccc(-c2cnc(N)c(NCc3c(Cl)cccc3Cl)n2)cc1)C1CCN[C@@H](C(=O)OC2CCCC2)C1 (stereo partly drawn) [Example 31, Cyclopentyl (2R)-4-[acetyl(4-{5-amino-6-[(2,6-dichlorobenzyl)amino]pyrazin-2-yl}benzyl)amino]piperidine-2-carboxylate]
100 to 300 nM | 1000 to 5000 nM | Nc1ncc(-c2cccc(C(=O)NC3CCN[C@@H](C(=O)OC4CCCC4)C3)c2)nc1NCc1c(Cl)cccc1Cl (stereo partly drawn) [Example 32, Cyclopentyl (2R)-4-[(3-{5-amino-6-[(2,6-dichlorobenzyl)amino]pyrazin-2-yl}benzoyl)amino]piperidine-2-carboxylate]
100 to 300 nM | 1000 to 5000 nM | CC(C)(C)OC(=O)[C@H]1CC(NC(=O)c2cccc(-c3cnc(N)c(NCc4c(Cl)cccc4Cl)n3)c2)CCN1 (stereo partly drawn) [Example 33, tert-Butyl (2R)-4-[(3-{5-amino-6-[(2,6-dichlorobenzyl)amino]pyrazin-2-yl}benzoyl)amino]piperidine-2-carboxylate]
< 100 nM | 100 to 300 nM | Nc1ncc(-c2cccc(CNC3CCN[C@@H](C(=O)OC4CCCC4)C3)c2)nc1NCc1c(Cl)cccc1Cl (stereo partly drawn) [Example 34, Cyclopentyl (2R)-4-[(3-{5-amino-6-[(2,6-dichlorobenzyl)amino]pyrazin-2-yl}benzyl)amino]piperidine-2-carboxylate]
< 100 nM | 300 to 1000 nM | Nc1ncc(-c2cccc(CNC3CCN[C@H](C(=O)OC4CCCC4)C3)c2)nc1NCc1c(Cl)cccc1Cl (stereo partly drawn) [Example 35, Cyclopentyl (2S)-4-[(3-{5-amino-6-[(2,6-dichlorobenzyl)amino]pyrazin-2-yl}benzyl)amino]piperidine-2-carboxylate di-formate]
300 to 1000 nM | 100 to 300 nM | Nc1ncc(-c2cccc(CN3CCN[C@H](C(=O)OC4CCCC4)C3)c2)nc1NCc1c(Cl)cccc1Cl [Example 36, Cyclopentyl (2S)-4-(3-{5-amino-6-[(2,6-dichlorobenzyl)amino]pyrazin-2-yl}benzyl)piperazine-2-carboxylate]
300 to 1000 nM | < 100 nM | Nc1ncc(-c2cccc(CN3CCN[C@@H](C(=O)OC4CCCC4)C3)c2)nc1NCc1c(Cl)cccc1Cl [Example 37, Cyclopentyl (2R)-4-(3-{5-amino-6-[(2,6-dichlorobenzyl)amino]pyrazin-2-yl}benzyl)piperazine-2-carboxylate]
> 5000 nM | > 5000 nM | CC(C)C[C@H](NCc1cccc(-c2cnc(N)c(NCc3c(Cl)cccc3Cl)n2)c1)C(=O)OC1CCCC1 [Example 38, Cyclopentyl N-(3-{5-amino-6-[(2,6-dichlorobenzyl)amino]pyrazin-2-yl}benzyl)-L-leucinate]
> 5000 nM | > 5000 nM | CC(C)C[C@H](NCc1cccc(-c2cnc(N)c(NCc3c(Cl)cccc3Cl)n2)c1)C(=O)OC(C)(C)C [Example 39, tert-Butyl N-(3-{5-amino-6-[(2,6-dichlorobenzyl)amino]pyrazin-2-yl}benzyl)-L-leucinate]
